Several values for one entry are separate records, joined by “and”; a condition that tells them apart may be missing. Equal entries are not always repeated. Toxic doses and inconclusive results are not listed. Rule for the calls: active = survival T/C of 150% or more; inactive = T/C below 125% in these data.
Test system: CD2F1 mice, L1210 leukemia ip, survival T/C
Assay: NCI In Vivo Anticancer Drug Screen. Data for tumor model L1210 Leukemia (intraperitoneal) in CD2F1 (CDF1) mice
Details: higher = longer survival
Method in brief: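 Compound-dosed mice with transplantable tumor versus matched vehicle controls; endpoint ratio T/C reported.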

[1] = endpoint: mean survival time, dose: 100.0 mg/kg/injection, schedule: Q04DX002 (ip), vehicle: saline with Tween-80
[2] = endpoint: mean survival time, dose: 200.0 mg/kg/injection, schedule: Q04DX002 (ip), vehicle: saline with Tween-80
[3] = endpoint: mean survival time, dose: 400.0 mg/kg/injection, schedule: Q04DX002 (ip), vehicle: saline with Tween-80
[4] = endpoint: mean survival time, dose: 100.0 mg/kg/injection, schedule: Q04DX003 (ip), vehicle: saline with Tween-80
[5] = endpoint: mean survival time, dose: 12.5 mg/kg/injection, schedule: Q01DX005 (ip), vehicle: water
[6] = endpoint: mean survival time, dose: 25.0 mg/kg/injection, schedule: Q01DX005 (ip), vehicle: water
[7] = endpoint: mean survival time, dose: 50.0 mg/kg/injection, schedule: Q01DX005 (ip), vehicle: water
[8] = endpoint: mean survival time, dose: 100.0 mg/kg/injection, schedule: Q01DX005 (ip), vehicle: water
[9] = endpoint: mean survival time, dose: 200.0 mg/kg/injection, schedule: Q01DX005 (ip), vehicle: water
[10] = endpoint: mean survival time, dose: 100.0 mg/kg/injection, schedule: Q01DX009 (ip), vehicle: saline with Tween-80
[11] = endpoint: mean survival time, dose: 200.0 mg/kg/injection, schedule: Q01DX009 (ip), vehicle: saline with Tween-80
[12] = endpoint: mean survival time, dose: 200.0 mg/kg/injection, schedule: Q04DX003 (ip), vehicle: saline with Tween-80
[13] = endpoint: mean survival time, dose: 400.0 mg/kg/injection, schedule: Q01DX009 (ip), vehicle: saline with Tween-80
[14] = endpoint: mean survival time, dose: 400.0 mg/kg/injection, schedule: Q04DX003 (ip), vehicle: saline with Tween-80
[15] = endpoint: mean survival time, dose: 12.5 mg/kg/injection, schedule: Q01DX009 (ip), vehicle: saline with Tween-80
[16] = endpoint: mean survival time, dose: 25.0 mg/kg/injection, schedule: Q01DX009 (ip), vehicle: saline with Tween-80
[17] = endpoint: mean survival time, dose: 50.0 mg/kg/injection, schedule: Q01DX009 (ip), vehicle: saline with Tween-80

Measured: T/C

C=C1C(O)C2(O)OCC34C(CC5C(C)=CC(=O)C(O)C5(C)C23)OC(=O)C(OC(=O)C(C)(O)CC)C14 (stereo not given)
inactive: endpoint: mean survival time, dose: 0.25 mg/kg/injection, schedule: Q01DX009 (ip), vehicle: saline + alcohol 98 % of control | endpoint: mean survival time, dose: 0.5 mg/kg/injection, schedule: Q01DX009 (ip), vehicle: saline + alcohol 100 % of control | endpoint: mean survival time, dose: 1.0 mg/kg/injection, schedule: Q01DX009 (ip), vehicle: saline + alcohol 102 % of control | endpoint: mean survival time, dose: 2.0 mg/kg/injection, schedule: Q01DX009 (ip), vehicle: saline + alcohol 90 % of control

O=C(Nc1cccc(C(F)(F)F)c1)c1ccc(Cl)cc1
inactive: [1] 97 % of control | [2] 105 % of control | [3] 105 % of control

CC1=CC(c2ccccc2)=CC(C)(C)C1 (tested in a mixture with another compound)
inactive: endpoint: mean survival time, dose: 25.0 mg/kg/injection, schedule: Q01DX009 (ip), vehicle: saline sonified 95 % of control | endpoint: mean survival time, dose: 50.0 mg/kg/injection, schedule: Q01DX009 (ip), vehicle: saline sonified 103 % of control | endpoint: mean survival time, dose: 100.0 mg/kg/injection, schedule: Q01DX009 (ip), vehicle: saline sonified 103 % of control | [4] 94 % of control

C=C(C)CNC1=C(C)C(=O)C2=C(C1=O)[C@H](COC(N)=O)[C@]1(OC)[C@@H]3N[C@@H]3CN21
inactive: endpoint: mean survival time, dose: 1.5 mg/kg/injection, schedule: Q01DX001 (ip), vehicle: distilled water + Tween-80 119 % of control | endpoint: mean survival time, dose: 3.0 mg/kg/injection, schedule: Q01DX001 (ip), vehicle: distilled water + Tween-80 117 % of control | endpoint: mean survival time, dose: 12.0 mg/kg/injection, schedule: Q01DX001 (ip), vehicle: distilled water + Tween-80 101 % of control

CCOC(=O)c1c(C)c2c(n1C)CCCC2=O
inactive: [1] 93 % of control | [2] 89 % of control | [3] 86 % of control

CNC(C)C(O)c1ccc(O)cc1 (stereo not given)
inactive: endpoint: mean survival time, dose: 50.0 mg/kg/injection, schedule: Q01DX001 (ip), vehicle: carboxymethylcellulose (CMC) 112 % of control | endpoint: mean survival time, dose: 100.0 mg/kg/injection, schedule: Q01DX001 (ip), vehicle: carboxymethylcellulose (CMC) 108 % of control | endpoint: mean survival time, dose: 200.0 mg/kg/injection, schedule: Q01DX001 (ip), vehicle: carboxymethylcellulose (CMC) 108 % of control | endpoint: mean survival time, dose: 400.0 mg/kg/injection, schedule: Q01DX001 (ip), vehicle: carboxymethylcellulose (CMC) 104 % of control

c1ccc2nc3c4ccccc4c4ccccc4c3nc2c1
inactive: endpoint: mean survival time, dose: 100.0 mg/kg/injection, schedule: Q04DX002 (ip), vehicle: Klucel (hydroxypropylcellulose) (HPC) 97 % of control | endpoint: mean survival time, dose: 200.0 mg/kg/injection, schedule: Q04DX002 (ip), vehicle: Klucel (hydroxypropylcellulose) (HPC) 97 % of control | endpoint: mean survival time, dose: 400.0 mg/kg/injection, schedule: Q04DX002 (ip), vehicle: Klucel (hydroxypropylcellulose) (HPC) 97 % of control

Nc1ncnc2c1ccn2C1OC(CO)CC1O (stereo not given)
inactive: endpoint: mean survival time, dose: 75.0 mg/kg/injection, schedule: Q01DX001 (ip), vehicle: saline 103 % of control | endpoint: mean survival time, dose: 150.0 mg/kg/injection, schedule: Q01DX001 (ip), vehicle: saline 100 % of control | endpoint: mean survival time, dose: 300.0 mg/kg/injection, schedule: Q01DX001 (ip), vehicle: saline 109 % of control

COC1OC(OC2OC=C3C(=O)OC4CC(C)C2C34)C(O)C(O)C1O (stereo not given)
inactive: endpoint: median survival time, dose: 4.0 mg/kg/injection, schedule: Q01DX005 (ip), vehicle: Klucel (hydroxypropylcellulose) (HPC) 104 % of control | endpoint: median survival time, dose: 8.0 mg/kg/injection, schedule: Q01DX005 (ip), vehicle: Klucel (hydroxypropylcellulose) (HPC) 101 % of control | endpoint: median survival time, dose: 16.0 mg/kg/injection, schedule: Q01DX005 (ip), vehicle: Klucel (hydroxypropylcellulose) (HPC) 104 % of control | endpoint: median survival time, dose: 32.0 mg/kg/injection, schedule: Q01DX005 (ip), vehicle: Klucel (hydroxypropylcellulose) (HPC) 109 % of control

Nc1nc(N2CCCCC2)c2ncn(C3OC(CO)C(O)C3O)c2n1 (stereo not given)
inactive: [5] 106 % of control | [6] 101 % of control | [7] 112 % of control | [8] 96 % of control | [9] 108 % of control

Cc1ccc(N)c(N)c1
inactive: endpoint: median survival time, dose: 25.0 mg/kg/injection, schedule: Q01DX009 (ip), vehicle: saline with Tween-80 98 % of control | endpoint: median survival time, dose: 50.0 mg/kg/injection, schedule: Q01DX009 (ip), vehicle: saline with Tween-80 98 % of control | endpoint: median survival time, dose: 100.0 mg/kg/injection, schedule: Q01DX009 (ip), vehicle: saline with Tween-80 96 % of control

CC(=O)Nc1c([N+](=O)[O-])cc2c3c(cccc13)CC2
inactive: [10] 102 % of control | [4] 100 % of control | [11] 97 % of control | [12] 102 % of control | [13] 97 % of control | [14] 100 % of control

N#CSCc1ccc(O)c(C(=O)O)c1
inactive: endpoint: mean survival time, dose: 10.0 mg/kg/injection, schedule: Q01DX009 (ip), vehicle: saline with Tween-80 94 % of control | endpoint: mean survival time, dose: 20.0 mg/kg/injection, schedule: Q01DX009 (ip), vehicle: saline with Tween-80 105 % of control | endpoint: mean survival time, dose: 40.0 mg/kg/injection, schedule: Q01DX009 (ip), vehicle: saline with Tween-80 106 % of control

CCN(C(=O)Nc1cc(OC)ccc1OC)c1ccc(Cl)cc1
inactive: [10] 96 % of control | [11] 96 % of control | [13] 93 % of control

CC1=NNC2c3ccccc3-c3ccccc3N2C1 (stereo not given)
inactive: endpoint: mean survival time, dose: 100.0 mg/kg/injection, schedule: Q01DX001 (ip), vehicle: saline 94 % of control | endpoint: mean survival time, dose: 200.0 mg/kg/injection, schedule: Q01DX001 (ip), vehicle: saline 93 % of control | endpoint: mean survival time, dose: 400.0 mg/kg/injection, schedule: Q01DX001 (ip), vehicle: saline 98 % of control

CC1(C)N=C(N)N=C(N)N1c1ccc(CCc2ccccc2)cc1
inactive: [15] 95 % of control | [16] 87 % of control

CC(C#N)CCCC#N (stereo not given)
inactive: [16] 100 % of control | [17] 102 % of control | [4] 101 % of control

O=c1c2ccccc2c2nccc3c4ccccc4n1c32
inactive: [10] 103 % of control | [4] 102 % of control | [11] 105 % of control | [12] 107 % of control | [13] 100 % of control | [14] 107 % of control

CC(CCC(=O)O)C1CCC2C3CCC4CC(O)CCC4(C)C3CC(O)C12C (stereo not given)
inactive: endpoint: mean survival time, dose: 100.0 mg/kg/injection, schedule: Q01DX001 (ip), vehicle: saline with Tween-80 104 % of control and 94 % of control | endpoint: mean survival time, dose: 200.0 mg/kg/injection, schedule: Q01DX001 (ip), vehicle: saline with Tween-80 101 % of control | endpoint: mean survival time, dose: 400.0 mg/kg/injection, schedule: Q01DX001 (ip), vehicle: saline with Tween-80 92 % of control

[Br][OsH].[C-]#[O+].c1ccc([PH+](c2ccccc2)c2ccccc2)cc1.c1ccc([PH+](c2ccccc2)c2ccccc2)cc1.c1ccc([PH+](c2ccccc2)c2ccccc2)cc1
inactive: [1] 91 % of control | [2] 87 % of control | [3] 87 % of control

Nc1nc(N)c2[nH]c(-c3ccccc3[N+](=O)[O-])nc2n1
inactive: [5] 96 % of control | [6] 89 % of control | [7] 87 % of control | [8] 96 % of control | [9] 96 % of control

CC(Oc1ccc(Cl)cc1)C(/C=N/N=C(N)N)=N/N=C(N)N (stereo not given)
inactive: endpoint: mean survival time, dose: 1.56 mg/kg/injection, schedule: Q01DX009 (ip), vehicle: saline 100 % of control | endpoint: mean survival time, dose: 3.13 mg/kg/injection, schedule: Q01DX009 (ip), vehicle: saline 98 % of control | endpoint: mean survival time, dose: 6.25 mg/kg/injection, schedule: Q01DX009 (ip), vehicle: saline 102 % of control | endpoint: mean survival time, dose: 12.5 mg/kg/injection, schedule: Q01DX009 (ip), vehicle: saline 100 % of control | endpoint: mean survival time, dose: 25.0 mg/kg/injection, schedule: Q01DX009 (ip), vehicle: saline 96 % of control and 101 % of control

O=C1c2ccccc2C(=O)N1CN1C(=O)c2ccccc2C1=O
inactive: [17] 93 % of control | [10] 92 % of control | [11] 93 % of control

CCCCCCCC/C=C/CCCCCC1CCCC(C)N1 (stereo not given)
inactive: endpoint: mean survival time, dose: 50.0 mg/kg/injection, schedule: Q04DX002 (ip), vehicle: saline with Tween-80 98 % of control and 102 % of control | [1] 94 % of control

O=C(CCCCCCCCC(=O)N/N=C\c1ccccc1O)N/N=C\c1ccccc1O
inactive: [15] 97 % of control | [4] 98 % of control | [12] 93 % of control | [14] 93 % of control
